Data on 28 compounds can be found in patent publication US20240376100A1 (Redona Therapeutics, Inc., priority 2021, published 2024).

The target in this test is PAPD5 enzyme (Homo sapiens, UniProt Q8NDF8). Put plainly: PAPD5 assay (AMP incorporation onto 3'-terminus of RNA substrate, fluorescence quench). It is filed as biochemical. The settings on record: PAPD5 protein 0.3 nM, ATP 50 μM, 30 minutes preincubation, room temperature; read-out: Potency PAPD5 IC50. Summed up:
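Enzyme at 0.3 nM with 50 μM ATP, pH 7.3 HEPES buffer, preincubated with compound 30 minutes at room temperature; 5 nM 5′-fluorescein RNA substrate and 20 nM TAMRA quench probe then added. Initial rates from kinetic fluorescein decrease over ~90 minutes; IC50 by four-parameter fit.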

PAPD5 enzyme, sequence (Q8NDF8 whole entry): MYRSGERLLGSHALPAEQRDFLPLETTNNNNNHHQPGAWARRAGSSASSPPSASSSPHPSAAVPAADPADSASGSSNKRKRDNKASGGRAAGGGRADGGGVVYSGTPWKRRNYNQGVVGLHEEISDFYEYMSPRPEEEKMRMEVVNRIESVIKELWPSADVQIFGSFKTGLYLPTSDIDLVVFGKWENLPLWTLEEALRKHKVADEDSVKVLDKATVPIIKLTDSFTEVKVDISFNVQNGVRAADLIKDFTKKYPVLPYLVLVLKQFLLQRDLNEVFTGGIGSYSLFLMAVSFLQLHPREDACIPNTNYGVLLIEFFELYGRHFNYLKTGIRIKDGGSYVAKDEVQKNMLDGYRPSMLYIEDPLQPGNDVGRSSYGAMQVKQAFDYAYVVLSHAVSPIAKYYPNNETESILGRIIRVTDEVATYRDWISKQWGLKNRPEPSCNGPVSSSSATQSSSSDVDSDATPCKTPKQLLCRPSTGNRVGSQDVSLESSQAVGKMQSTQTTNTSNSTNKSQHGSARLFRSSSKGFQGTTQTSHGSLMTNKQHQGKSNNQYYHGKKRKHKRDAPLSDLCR

Regarding `COc1cnc(-n2cc(C(=O)O)c(=O)c3cc(C#N)c(N4Cc5cccnc5C4)cc32)cn1` [Example 54, 6-cyano-7-(5,7-dihydro-6H-pyrrolo[3,4-b]pyridin-6-yl)-1-(5-methoxypyrazin-2-yl)-4-oxo-1,4-dihydro quinoline-3-carboxylic acid], the half-maximal inhibitory concentration (IC50) (as a rule, the concentration that inhibits the measured activity by half) is at most 1000 nM.

With `Cc1cc(NC(=O)N2CCOCC2)ncc1-n1cc(C(=O)O)c(=O)c2cc(Cl)c(N3Cc4cccnc4C3)cc21` [Example 115, 6-chloro-7-(5,7-dihydro-6H-pyrrolo[3,4-b]pyridin-6-yl)-1-(4-methyl-6-(morpholine-4-carboxamido)pyridin-3-yl)-4-oxo-1,4-dihydroquinoline-3-carboxylic acid], the 50% inhibitory concentration (IC50) was at most 1000 nM. The value for `CNc1cc(C)c(-n2cc(C(=O)O)c(=O)c3cc(F)c(N4Cc5cccnc5C4)cc32)cn1` [Example 87, 7-(5,7-dihydro-6H-pyrrolo[3,4-b]pyridin-6-yl)-6-fluoro-1-(4-methyl-6-(methylamino)pyridin-3-yl)-4-oxo-1,4-dihydroquinoline-3-carboxylic acid] was at most 1000 nM. Take `COCCN(C)c1ccn(-c2cc3c(cc2Cl)c(=O)c(C(=O)O)cn3-c2ccc(N)nc2)n1` [Example 94, 1-(6-aminopyridin-3-yl)-6-chloro-7-(3-((2-methoxyethyl)(methyl)amino)-1H-pyrazol-1-yl)-4-oxo-1,4-dihydroquinoline-3-carboxylic acid]: the IC50 was at most 1000 nM. The value for `O=C(O)c1cn(Cc2ccccc2F)c2nc(N3Cc4cccnc4C3)c(Cl)cc2c1=O` [Example 68, 6-chloro-7-(5,7-dihydro-6H-pyrrolo[3,4-b]pyridin-6-yl)-1-(2-fluorobenzyl)-4-oxo-1,4-dihydro-1,8-naphthyridine-3-carboxylic acid] was at most 1000 nM; that for `O=C(O)c1cn(-c2ccc(O)cc2)c2cc(N3Cc4cccnc4C3)c(Cl)cc2c1=O` [Example 16, 6-chloro-7-(5,7-dihydro-6H-pyrrolo[3,4-b]pyridin-6-yl)-1-(4-hydroxyphenyl)-4-oxo-1,4-dihydroquinoline-3-carboxylic acid] was at most 1000 nM; that for `CCOc1cc2c(=O)c(C(=O)O)cn(-c3cnc(N)cc3C)c2cc1N1Cc2cccnc2C1` [Example 144, 1-(6-amino-4-methylpyridin-3-yl)-7-(5,7-dihydro-6H-pyrrolo[3,4-b]pyridin-6-yl)-6-ethoxy-4-oxo-1,4-dihydroquinoline-3-carboxylic acid] was at most 1000 nM. The result for `O=C(O)c1cn(-c2ccc(O)cc2F)c2cc(N3Cc4ccccc4C3)c(F)cc2c1=O` [Example 32, 6-fluoro-1-(2-fluoro-4-hydroxyphenyl)-7-(isoindolin-2-yl)-4-oxo-1,4-dihydroquinoline-3-carboxylic acid] reads at most 1000 nM. For the compound `O=C(O)c1cn(-c2cnccn2)c2nc(N3Cc4cccnc4C3)c(Cl)cc2c1=O` [Example 2, 6-chloro-4-oxo-1-(pyrazin-2-yl)-7{5H,6H,7H pyrrolo[3,4-b]pyridin-6-yl}-1,4-dihydro-1,8-naphthyridine-3-carboxylic acid], the IC50 was at most 1000 nM. The result for `Cc1cc(NC(=O)OC(C)(C)C)ncc1-n1cc(C(=O)O)c(=O)c2ccc(N3Cc4cccnc4C3)c(F)c21` [Example 156, 1-(6-((tert-butoxycarbonyl)amino)-4-methylpyridin-3-yl)-7-(5,7-dihydro-6H-pyrrolo[3,4-b]pyridin-6-yl)-8-fluoro-4-oxo-1,4-dihydroquinoline-3-carboxylic acid] reads at most 1000 nM; that for `N#Cc1cc2c(=O)c(C(=O)O)cn(-c3cnccn3)c2nc1N1Cc2cccnc2C1` [Example 45, 6-cyano-7-(5,7-dihydro-6H-pyrrolo[3,4-b]pyridin-6-yl)-4-oxo-1-(pyrazin-2-yl)-1,4-dihydro-1,8-naphthyridine-3-carboxylic acid], at most 1000 nM; that for `CN1CCC(n2cc(C(=O)O)c(=O)c3cc(Cl)c(N4Cc5cccnc5C4)cc32)CC1` [Example 121, 6-chloro-7-(5,7-dihydro-6H-pyrrolo[3,4-b]pyridin-6-yl)-1-(1-methylpiperidin-4-yl)-4-oxo-1,4-dihydroquinoline-3-carboxylic acid], at most 1000 nM. The result for `N#Cc1cc2c(=O)c(C(=O)O)cn(CC3CCC3)c2nc1N1Cc2cccnc2C1` [Example 7, 6-cyano-1-(cyclobutylmethyl)-4-oxo-7-{5H,6H,7H-pyrrolo[3,4-b]pyridin-6-yl}-1,4-dihydro-1,8-naphthyridine-3-carboxylic acid] reads at most 1000 nM. The value for `Cc1cc(N)ncc1-n1cc(C(=O)O)c(=O)c2cc(Cl)c(N3CCc4ccncc4C3)nc21` [Example 185, 1-(6-amino-4-methylpyridin-3-yl)-6-chloro-7-(3,4-dihydro-2,7-naphthyridin-2(1H)-yl)-4-oxo-1,4-dihydro-1,8-naphthyridine-3-carboxylic acid] was at most 1000 nM; that for `O=C(O)c1cn(Cc2ccncc2)c2nc(N3Cc4cccnc4C3)c(Cl)cc2c1=O` [Example 66, 6-chloro-7-(5,7-dihydro-6H-pyrrolo[3,4-b]pyridin-6-yl)-4-oxo-1-(pyridin-4-ylmethyl)-1,4-dihydro-1,8-naphthyridine-3-carboxylic acid] was at most 1000 nM; that for `Cc1cc(NS(C)(=O)=O)ncc1-n1cc(C(=O)O)c(=O)c2cc(Cl)c(N3Cc4cccnc4C3)nc21` [Example 200, 6-chloro-7-(5,7-dihydro-6H-pyrrolo[3,4-b]pyridin-6-yl)-1-(4-methyl-6-(methylsulfonamido)pyridin-3-yl)-4-oxo-1,4-dihydro-1,8-naphthyridine-3-carboxylic acid] was at most 1000 nM.

Regarding `Cc1cc(NC(=O)OC(C)(C)C)ncc1-n1cc(C(=O)O)c(=O)c2cc(Cl)c(-n3cccn3)nc21` [Example 164, 1-(6-((tert-butoxycarbonyl)amino)-4-methylpyridin-3-yl)-6-chloro-4-oxo-7-(1H-pyrazol-1-yl)-1,4-dihydro-1,8-naphthyridine-3-carboxylic acid], the IC50 is at most 1000 nM. The result for `COCCNc1ccc(-n2cc(C(=O)O)c(=O)c3cc(C#N)c(N4Cc5cccnc5C4)cc32)cn1` [Example 50, 6-cyano-7-(5,7-dihydro-6H-pyrrolo[3,4-b]pyridin-6-yl)-1-(6-((2-methoxyethyl)amino)pyridin-3-yl)-4-oxo-1,4-dihydroquinoline-3-carboxylic acid] reads at most 1000 nM. The value for `Cc1cc(N)ncc1-n1cc(C(=O)O)c(=O)c2cc(Cl)c(-n3ccc(N)n3)nc21` [Example 147, 7-(3-amino-1H-pyrazol-1-yl)-1-(6-amino-4-methylpyridin-3-yl)-6-chloro-4-oxo-1,4-dihydro-1,8-naphthyridine-3-carboxylic acid] was at most 1000 nM. The result for `COc1cnc(-n2cc(C(=O)O)c(=O)c3cc(F)c(N4Cc5cccnc5C4)nc32)cn1` [Example 103, 7-(5,7-dihydro-6H-pyrrolo[3,4-b]pyridin-6-yl)-6-fluoro-1-(5-methoxypyrazin-2-yl)-4-oxo-1,4-dihydro-1,8-naphthyridine-3-carboxylic acid] reads at most 1000 nM; that for `CC1(Cn2cc(C(=O)O)c(=O)c3cc(Cl)c(N4Cc5cccnc5C4)nc32)CCC1` [Example 61, 6-chloro-7-(5,7-dihydro-6H-pyrrolo[3,4-b]pyridin-6-yl)-1-((1-methylcyclobutyl)methyl)-4-oxo-1,4-dihydro-1,8-naphthyridine-3-carboxylic acid], at most 1000 nM; that for `CC(=O)Nc1cc(C)c(-n2cc(C(=O)O)c(=O)c3cc(Cl)c(N4Cc5cccnc5C4)cc32)cn1` [Example 81, 1-(6-acetamido-4-methylpyridin-3-yl)-6-chloro-7-(5,7-dihydro-6H-pyrrolo[3,4-b]pyridin-6-yl)-4-oxo-1,4-dihydroquinoline-3-carboxylic acid], at most 1000 nM. With `Nc1ccc(-n2cc(C(=O)O)c(=O)c3cc(Cl)c(N4Cc5cccnc5C4)cc32)cn1` [Example 52, 1-(6-aminopyridin-3-yl)-6-chloro-7-(5,7-dihydro-6H-pyrrolo[3,4-b]pyridin-6-yl)-4-oxo-1,4-dihydroquinoline-3-carboxylic acid], the 50% inhibitory concentration (IC50) is at most 1000 nM. On to `CCOc1cc2c(=O)c(C(=O)O)cn(-c3cnc(NC(=O)OC(C)(C)C)cc3C)c2cc1N1Cc2cccnc2C1` [Example 149, 1-(6-((tert-butoxycarbonyl)amino)-4-methylpyridin-3-yl)-7-(5,7-dihydro-6H-pyrrolo[3,4-b]pyridin-6-yl)-6-ethoxy-4-oxo-1,4-dihydroquinoline-3-carboxylic acid], for which the 50% inhibitory concentration (IC50) was at most 1000 nM. The result for `Cc1cc(NC(=O)OC(C)(C)C)ncc1-n1cc(C(=O)O)c(=O)c2cc(Cl)c(N3Cc4ccccc4C3)nc21` [Example 165, 1-(6-((tert-butoxycarbonyl)amino)-4-methylpyridin-3-yl)-6-chloro-7-(isoindolin-2-yl)-4-oxo-1,4-dihydro-1,8-naphthyridine-3-carboxylic acid] reads at most 1000 nM. The value for `CCC(=O)Nc1cc(C)c(-n2cc(C(=O)O)c(=O)c3cc(Cl)c(N4Cc5cccnc5C4)cc32)cn1` [Example 82, 6-chloro-7-(5,7-dihydro-6H-pyrrolo[3,4-b]pyridin-6-yl)-1-(4-methyl-6-propionamidopyridin-3-yl)-4-oxo-1,4-dihydroquinoline-3-carboxylic acid] was at most 1000 nM; that for `Cc1cc(N)ncc1-n1cc(C(=O)O)c(=O)c2cc(Cl)c(N3Cc4cccc(F)c4C3)nc21` [Example 158, 1-(6-amino-4-methylpyridin-3-yl)-6-chloro-7-(4-fluoroisoindolin-2-yl)-4-oxo-1,4-dihydro-1,8-naphthyridine-3-carboxylic acid] was at most 1000 nM. As for `CCOC(=O)c1cn(-c2ccc(Cl)nc2)c2cc(N3Cc4cccnc4C3)c(Cl)cc2c1=O` [Example 90, Ethyl 6-chloro-1-(6-chloropyridin-3-yl)-7-(5,7-dihydro-6H-pyrrolo[3,4-b]pyridin-6-yl)-4-oxo-1,4-dihydroquinoline-3-carboxylate], the IC50 is at most 1000 nM.
